This is an account of results in the supplement of paper PMC11208160.

The data set in a line: recombinant UMI read abundance after kanamycin selection (control-corrected) (log10(CPM+1)); higher = more efficient recombination; extreme values may be limits of the assay; sequences stand for … in AGTGCAGAGAAAATCGGCCAGTTTTCTCTGCCTGCAGTCCGCATGCCGTGGGACCCCTTGGGTTCTAACCTGTTGCCTAGATTTATGCAGCGGACTGCCTTTCTCCCAAAGTGATAAACCGG…AGGTTGGTTTCACT; site = the 11-nt donor. As to the method: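 Pooled E. coli donor-specificity screen for the IS621 bridge recombinase. Each library member carries a reprogrammed 11-nt donor and a full-length LE bridge RNA expressed in cis from the natural promoter, with a paired donor-binding loop (8-nt LDG + 4-nt RDG) and a target-binding loop fixed to T5. It is co-electroporated with a T5 target plasmid; recombinase is induced with 0.07 mM IPTG and recombinants are selected on kanamycin. UMIs are counted as CPM, averaged over two biological replicates and corrected by the unselected control. Molecule = full bridge RNA written as DNA, built from the T5 scaffold: LDG = donor specificity nt 1-8, RDG = reverse complement of nt 8-11.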
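Further: IS621 bridge recombinase in Escherichia coli cells against a fixed T5 target plasmid.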

Take “AATCACGCATGGACCGGTTTTCCCGGTAATCCGTATTTGGG (site AAGCACGCTCC)”: the “recombinant UMI read abundance (log10)” value stood at 0.0135.

With “AATCACGCATGGACCGGTTTTCCCGGTAATCCGTATTTGGG (site AATCACGCTCC)”, the “recombinant UMI read abundance (log10)” value was 0.0109.

As to “AATCCATCATGGACCGGTTTTCCCGGTAATCCGTATTTGAT (site AATCCATCTAT)”, the “recombinant UMI read abundance (log10)” value amounted to 0.288.

On to “AATCGAACATGGACCGGTTTTCCCGGTAATCCGTATTTGTC (site AATCGAACTGA)”, for which the “recombinant UMI read abundance (log10)” value stood at 0.559.

“AATCGGACATGGACCGGTTTTCCCGGTAATCCGTATTTGAT (site AATCGGACTAT)”: the “recombinant UMI read abundance (log10)” value is 1.01.

As for “AATCTCTCATGGACCGGTTTTCCCGGTAATCCGTATTTGGC (site AATCTCTCTGC)”, the “recombinant UMI read abundance (log10)” value was found to be 2.62.

Regarding “AATCTTGCATGGACCGGTTTTCCCGGTAATCCGTATTTGTC (site AATCTTGCTGA)”, the “recombinant UMI read abundance (log10)” value came to 1.07.

With “AATGACCCATGGACCGGTTTTCCCGGTAATCCGTATTTGTT (site AATGACCCTAA)”, the “recombinant UMI read abundance (log10)” value was determined as 0.0112.

As for “AATGACTCATGGACCGGTTTTCCCGGTAATCCGTATTTGAG (site AATGACTCTCT)”, the “recombinant UMI read abundance (log10)” value stood at 2.08.

Turning to “AATGACTCATGGACCGGTTTTCCCGGTAATCCGTATTTGGT (site AATGACTCTAC)”, the “recombinant UMI read abundance (log10)” value was found to be 2.1.

“AATGCAACATGGACCGGTTTTCCCGGTAATCCGTATTTGTG (site AATGCAACTCA)”: the “recombinant UMI read abundance (log10)” value was 0.302.

Regarding “AATGCACCATGGACCGGTTTTCCCGGTAATCCGTATTTGTG (site AATGCACCTCA)”, the “recombinant UMI read abundance (log10)” value came to 0.0217.

Take “AATGCAGCATGGACCGGTTTTCCCGGTAATCCGTATTTGAA (site AATGCAGCTTT)”: the “recombinant UMI read abundance (log10)” value was 0.709.

Regarding “AATGGAACATGGACCGGTTTTCCCGGTAATCCGTATTTGCT (site AATGAAACTAG)”, the “recombinant UMI read abundance (log10)” value came to 0.482.

In the case of “AATGGAACATGGACCGGTTTTCCCGGTAATCCGTATTTGCT (site AATGCAACTAG)”, the “recombinant UMI read abundance (log10)” value was found to be 1.05.

As to “AATGGAACATGGACCGGTTTTCCCGGTAATCCGTATTTGCT (site AATGGAACTAG)”, the “recombinant UMI read abundance (log10)” value came out at 2.12.

Take “AATGGAACATGGACCGGTTTTCCCGGTAATCCGTATTTGCT (site AATGTAACTAG)”: the “recombinant UMI read abundance (log10)” value amounted to 1.78.

Turning to “AATGGATCATGGACCGGTTTTCCCGGTAATCCGTATTTGAA (site AATGGATCTTT)”, the “recombinant UMI read abundance (log10)” value is 2.07.

“AATGTACCATGGACCGGTTTTCCCGGTAATCCGTATTTGCG (site AATGTACCTCG)”: the “recombinant UMI read abundance (log10)” value amounted to 0.0178.

On to “AATGTCACATGGACCGGTTTTCCCGGTAATCCGTATTTGCT (site AATGTAACTAG)”, for which the “recombinant UMI read abundance (log10)” value is 0.799.

For the sequence “AATGTCACATGGACCGGTTTTCCCGGTAATCCGTATTTGCT (site AATGTCACTAG)”, the “recombinant UMI read abundance (log10)” value stood at 2.41.

In the case of “AATGTCACATGGACCGGTTTTCCCGGTAATCCGTATTTGCT (site AATGTGACTAG)”, the “recombinant UMI read abundance (log10)” value amounted to 0.0645.

Consider “AATGTCACATGGACCGGTTTTCCCGGTAATCCGTATTTGCT (site AATGTTACTAG)”, for which the “recombinant UMI read abundance (log10)” value amounted to 0.647.

For “AATGTCTCATGGACCGGTTTTCCCGGTAATCCGTATTTGAC (site AATGTATCTGT)”, the “recombinant UMI read abundance (log10)” value is 1.32.

“AATGTCTCATGGACCGGTTTTCCCGGTAATCCGTATTTGAC (site AATGTCTCTGT)”: the “recombinant UMI read abundance (log10)” value was determined as 2.21.

“AATGTCTCATGGACCGGTTTTCCCGGTAATCCGTATTTGAC (site AATGTGTCTGT)”: the “recombinant UMI read abundance (log10)” value was 0.

Regarding “AATGTCTCATGGACCGGTTTTCCCGGTAATCCGTATTTGAC (site AATGTTTCTGT)”, the “recombinant UMI read abundance (log10)” value came out at 0.

As for “AATGTGACATGGACCGGTTTTCCCGGTAATCCGTATTTGAC (site AATGTGACTGT)”, the “recombinant UMI read abundance (log10)” value was 2.69.

“AATGTGACATGGACCGGTTTTCCCGGTAATCCGTATTTGAC (site AATGTGCCTGT)”: the “recombinant UMI read abundance (log10)” value was 0.

On to “AATGTGACATGGACCGGTTTTCCCGGTAATCCGTATTTGAC (site AATGTGGCTGT)”, for which the “recombinant UMI read abundance (log10)” value was determined as 1.01.

Turning to “AATGTGACATGGACCGGTTTTCCCGGTAATCCGTATTTGAC (site AATGTGTCTGT)”, the “recombinant UMI read abundance (log10)” value stood at 0.

In the case of “AATGTGGCATGGACCGGTTTTCCCGGTAATCCGTATTTGAC (site AATGTGACTGT)”, the “recombinant UMI read abundance (log10)” value came out at 1.16.

As for “AATGTGGCATGGACCGGTTTTCCCGGTAATCCGTATTTGAC (site AATGTGCCTGT)”, the “recombinant UMI read abundance (log10)” value amounted to 0.00397.

In the case of “AATGTGGCATGGACCGGTTTTCCCGGTAATCCGTATTTGAC (site AATGTGGCTGT)”, the “recombinant UMI read abundance (log10)” value worked out at 1.81.

With “AATGTGGCATGGACCGGTTTTCCCGGTAATCCGTATTTGAC (site AATGTGTCTGT)”, the “recombinant UMI read abundance (log10)” value amounted to 0.451.

Turning to “AATGTGTCATGGACCGGTTTTCCCGGTAATCCGTATTTGGC (site AATGTGTCTGA)”, the “recombinant UMI read abundance (log10)” value worked out at 0.

Turning to “AATGTGTCATGGACCGGTTTTCCCGGTAATCCGTATTTGGC (site AATGTGTCTGC)”, the “recombinant UMI read abundance (log10)” value came to 2.67.

As to “AATGTGTCATGGACCGGTTTTCCCGGTAATCCGTATTTGGC (site AATGTGTCTGG)”, the “recombinant UMI read abundance (log10)” value amounted to 0.957.

On to “AATGTGTCATGGACCGGTTTTCCCGGTAATCCGTATTTGGC (site AATGTGTCTGT)”, for which the “recombinant UMI read abundance (log10)” value is 1.99.

As for “AATGTTTCATGGACCGGTTTTCCCGGTAATCCGTATTTGAC (site AATGTATCTGT)”, the “recombinant UMI read abundance (log10)” value is 1.73.

Turning to “AATGTTTCATGGACCGGTTTTCCCGGTAATCCGTATTTGAC (site AATGTCTCTGT)”, the “recombinant UMI read abundance (log10)” value stood at 0.

As to “AATGTTTCATGGACCGGTTTTCCCGGTAATCCGTATTTGAC (site AATGTGTCTGT)”, the “recombinant UMI read abundance (log10)” value was found to be 0.

In the case of “AATGTTTCATGGACCGGTTTTCCCGGTAATCCGTATTTGAC (site AATGTTTCTGT)”, the “recombinant UMI read abundance (log10)” value is 0.

Regarding “AATTAAACATGGACCGGTTTTCCCGGTAATCCGTATTTGTA (site AATTAAACTTA)”, the “recombinant UMI read abundance (log10)” value was 0.643.

Turning to “AATTAAACATGGACCGGTTTTCCCGGTAATCCGTATTTGTT (site AATTAAACTAA)”, the “recombinant UMI read abundance (log10)” value was 0.00778.

As to “AATTAATCATGGACCGGTTTTCCCGGTAATCCGTATTTGAT (site AATTAATCTAT)”, the “recombinant UMI read abundance (log10)” value was 1.47.

For “AATTAGGCATGGACCGGTTTTCCCGGTAATCCGTATTTGGG (site AATTAGGCTCC)”, the “recombinant UMI read abundance (log10)” value was 0.0811.

As for “AATTATACATGGACCGGTTTTCCCGGTAATCCGTATTTGGA (site AATTATACTTC)”, the “recombinant UMI read abundance (log10)” value was determined as 0.828.

Turning to “AATTATACATGGACCGGTTTTCCCGGTAATCCGTATTTGGA (site AATTATCCTTC)”, the “recombinant UMI read abundance (log10)” value came out at 0.0125.

Take “AATTATACATGGACCGGTTTTCCCGGTAATCCGTATTTGGA (site AATTATGCTTC)”: the “recombinant UMI read abundance (log10)” value came to 0.476.

In the case of “AATTATACATGGACCGGTTTTCCCGGTAATCCGTATTTGGA (site AATTATTCTTC)”, the “recombinant UMI read abundance (log10)” value was 0.335.

In the case of “AATTATGCATGGACCGGTTTTCCCGGTAATCCGTATTTGAA (site AATTATGCTTA)”, the “recombinant UMI read abundance (log10)” value turned out to be 0.0142.

Take “AATTATGCATGGACCGGTTTTCCCGGTAATCCGTATTTGAA (site AATTATGCTTC)”: the “recombinant UMI read abundance (log10)” value was 0.0246.

Regarding “AATTATGCATGGACCGGTTTTCCCGGTAATCCGTATTTGAA (site AATTATGCTTG)”, the “recombinant UMI read abundance (log10)” value came to 0.

For the sequence “AATTATGCATGGACCGGTTTTCCCGGTAATCCGTATTTGAA (site AATTATGCTTT)”, the “recombinant UMI read abundance (log10)” value stood at 0.313.

Consider “AATTATGCATGGACCGGTTTTCCCGGTAATCCGTATTTGGG (site AATTATGCTAC)”, for which the “recombinant UMI read abundance (log10)” value was 0.00898.

Regarding “AATTATGCATGGACCGGTTTTCCCGGTAATCCGTATTTGGG (site AATTATGCTCC)”, the “recombinant UMI read abundance (log10)” value amounted to 0.388.

“AATTATGCATGGACCGGTTTTCCCGGTAATCCGTATTTGGG (site AATTATGCTGC)”: the “recombinant UMI read abundance (log10)” value came to 0.

Regarding “AATTATGCATGGACCGGTTTTCCCGGTAATCCGTATTTGGG (site AATTATGCTTC)”, the “recombinant UMI read abundance (log10)” value stood at 0.0224.

Turning to “AATTATGCATGGACCGGTTTTCCCGGTAATCCGTATTTGTA (site AATTATGCTTA)”, the “recombinant UMI read abundance (log10)” value came out at 1.02.

As for “AATTATGCATGGACCGGTTTTCCCGGTAATCCGTATTTGTA (site AATTATGCTTC)”, the “recombinant UMI read abundance (log10)” value was 0.0111.

In the case of “AATTATGCATGGACCGGTTTTCCCGGTAATCCGTATTTGTA (site AATTATGCTTG)”, the “recombinant UMI read abundance (log10)” value came out at 0.00449.

Regarding “AATTATGCATGGACCGGTTTTCCCGGTAATCCGTATTTGTA (site AATTATGCTTT)”, the “recombinant UMI read abundance (log10)” value was determined as 0.0175.

In the case of “AATTGGGCATGGACCGGTTTTCCCGGTAATCCGTATTTGAT (site AATTGGGCTAT)”, the “recombinant UMI read abundance (log10)” value is 0.68.

As for “AATTTGGCATGGACCGGTTTTCCCGGTAATCCGTATTTGTG (site AATTTGGCTCA)”, the “recombinant UMI read abundance (log10)” value is 0.122.
